#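 All cell lines were grown in 96-well plates and treated with compound for 48 hours. At the GI50, growth is halved. The concentration for full growth arrest is given as TGI.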 Where a SMILES comes first, the peptide text is derived from it. [ ]: non-standard residue; d: D form. Phe(ol) = N[C@H](CO)Cc1ccccc1; Aib = CC(C)(N)C(=O)O
# Key:
# Assay in all cases: growth of human tumour cells (NCI), 48 h
# 786-0 renal = test system: 786-0 renal
# A498 renal = test system: A498 renal
# A549 NSCLC = test system: A549 NSCLC
# ACHN renal = test system: ACHN renal
# BT-549 breast = test system: BT-549 breast
# CCRF-CEM leukemia = test system: CCRF-CEM leukemia
# COLO 205 colon = test system: COLO 205 colon
# EKVX NSCLC = test system: EKVX NSCLC
# HCC-2998 colon = test system: HCC-2998 colon
# HCT-116 colon = test system: HCT-116 colon
# HCT-15 colon = test system: HCT-15 colon
# HL-60(TB) leukemia = test system: HL-60(TB) leukemia
# HOP-62 NSCLC = test system: HOP-62 NSCLC
# HOP-92 NSCLC = test system: HOP-92 NSCLC
# HS 578T breast = test system: HS 578T breast
# HT29 colon = test system: HT29 colon
# IGROV1 ovarian = test system: IGROV1 ovarian
# K-562 leukemia = test system: K-562 leukemia
# KM12 colon = test system: KM12 colon
# LOX IMVI melanoma = test system: LOX IMVI melanoma
# M14 melanoma = test system: M14 melanoma
# MALME-3M melanoma = test system: MALME-3M melanoma
# MCF7 breast = test system: MCF7 breast
# MDA-MB-231 breast = test system: MDA-MB-231 breast
# MDA-MB-435 = test system: MDA-MB-435
# MOLT-4 leukemia = test system: MOLT-4 leukemia
# NCI-H226 lung = test system: NCI-H226 lung
# NCI-H23 lung = test system: NCI-H23 lung
# NCI-H460 lung = test system: NCI-H460 lung
# NCI-H522 lung = test system: NCI-H522 lung
# NCI/ADR-RES ovarian = test system: NCI/ADR-RES ovarian
# OVCAR-3 ovarian = test system: OVCAR-3 ovarian
# OVCAR-4 ovarian = test system: OVCAR-4 ovarian
# OVCAR-5 ovarian = test system: OVCAR-5 ovarian
# OVCAR-8 ovarian = test system: OVCAR-8 ovarian
# PC-3 prostate = test system: PC-3 prostate
# RPMI-8226 leukemia = test system: RPMI-8226 leukemia
# RXF 393 renal = test system: RXF 393 renal
# SF-268 CNS = test system: SF-268 CNS
# SF-295 CNS = test system: SF-295 CNS
# SF-539 CNS = test system: SF-539 CNS
# SK-MEL-2 melanoma = test system: SK-MEL-2 melanoma
# SK-MEL-28 melanoma = test system: SK-MEL-28 melanoma
# SK-MEL-5 melanoma = test system: SK-MEL-5 melanoma
# SK-OV-3 ovarian = test system: SK-OV-3 ovarian
# SN12C renal = test system: SN12C renal
# SNB-19 CNS = test system: SNB-19 CNS
# SNB-75 CNS = test system: SNB-75 CNS
# SR leukemia = test system: SR leukemia
# SW-620 colon = test system: SW-620 colon
# T-47D breast = test system: T-47D breast
# TK-10 renal = test system: TK-10 renal
# U251 CNS = test system: U251 CNS
# UACC-257 melanoma = test system: UACC-257 melanoma
# UACC-62 melanoma = test system: UACC-62 melanoma
# UO-31 renal = test system: UO-31 renal
smiles,measurement,setting,value
CC(=O)NC(C)(C)C(=O)N1CCC[C@H]1C(=O)NC(C)(C)C(=O)N[C@@H](C)C(=O)NC(C)(C)C(=O)NC(C)(C)C(=O)N[C@@H](CCC(N)=O)C(=O)NC(C)(C)C(=O)N[C@H](C(=O)NC(C)(C)C(=O)NCC(=O)N[C@@H](CC(C)C)C(=O)NC(C)(C)C(=O)N1CCC[C@H]1C(=O)N[C@H](C(=O)NC(C)(C)C(=O)NC(C)(C)C(=O)N[C@@H](CCC(N)=O)C(=O)N[C@@H](CCC(N)=O)C(=O)N[C@H](CO)Cc1ccccc1)C(C)C)C(C)C (Ac-[Aib]P[Aib]A[Aib][Aib]Q[Aib]V[Aib]GL[Aib]PV[Aib][Aib]QQ[Phe(ol)]),GI50,786-0 renal,> 4.25 µM
same,TGI,786-0 renal,> 4.25 µM
same,GI50,A498 renal,1.64 µM
same,TGI,A498 renal,> 4.25 µM
same,GI50,A549 NSCLC,1.69 µM
same,TGI,A549 NSCLC,> 4.25 µM
same,GI50,ACHN renal,> 4.25 µM
same,TGI,ACHN renal,> 4.25 µM
same,GI50,BT-549 breast,0.78 µM
same,TGI,BT-549 breast,2.66 µM
same,GI50,CCRF-CEM leukemia,2.11 µM
same,TGI,CCRF-CEM leukemia,> 4.25 µM
same,GI50,COLO 205 colon,0.831 µM
same,TGI,COLO 205 colon,2.31 µM
same,GI50,EKVX NSCLC,2.51 µM
same,TGI,EKVX NSCLC,> 4.25 µM
same,GI50,HCC-2998 colon,1.96 µM
same,TGI,HCC-2998 colon,> 4.25 µM
same,GI50,HCT-116 colon,1.58 µM
same,TGI,HCT-116 colon,> 4.25 µM
same,GI50,HCT-15 colon,> 4.25 µM
same,TGI,HCT-15 colon,> 4.25 µM
same,GI50,HL-60(TB) leukemia,1.74 µM
same,TGI,HL-60(TB) leukemia,> 4.25 µM
same,GI50,HOP-62 NSCLC,3.07 µM
same,TGI,HOP-62 NSCLC,> 4.25 µM
same,GI50,HOP-92 NSCLC,1.1 µM
same,TGI,HOP-92 NSCLC,3.58 µM
same,GI50,HS 578T breast,1.49 µM
same,TGI,HS 578T breast,> 4.25 µM
same,GI50,HT29 colon,1.26 µM
same,TGI,HT29 colon,> 4.25 µM
same,GI50,IGROV1 ovarian,3.06 µM
same,TGI,IGROV1 ovarian,> 4.25 µM
same,GI50,K-562 leukemia,1.88 µM
same,TGI,K-562 leukemia,> 4.25 µM
same,GI50,KM12 colon,1.88 µM
same,TGI,KM12 colon,> 4.25 µM
same,GI50,LOX IMVI melanoma,1.57 µM
same,TGI,LOX IMVI melanoma,> 4.25 µM
same,GI50,M14 melanoma,3.85 µM
same,TGI,M14 melanoma,> 4.25 µM
same,GI50,MALME-3M melanoma,1.04 µM
same,TGI,MALME-3M melanoma,3.43 µM
same,GI50,MCF7 breast,0.206 µM
same,TGI,MCF7 breast,> 4.25 µM
same,GI50,MDA-MB-231 breast,1.29 µM
same,TGI,MDA-MB-231 breast,> 4.25 µM
same,GI50,MDA-MB-435,1.5 µM
same,TGI,MDA-MB-435,> 4.25 µM
same,GI50,MOLT-4 leukemia,2.8 µM
same,TGI,MOLT-4 leukemia,> 4.25 µM
same,GI50,NCI-H226 lung,1.32 µM
same,TGI,NCI-H226 lung,> 4.25 µM
same,GI50,NCI-H23 lung,0.833 µM
same,TGI,NCI-H23 lung,> 4.25 µM
same,GI50,NCI-H460 lung,1.27 µM
same,TGI,NCI-H460 lung,> 4.25 µM
same,GI50,NCI-H522 lung,0.948 µM
same,TGI,NCI-H522 lung,> 4.25 µM
same,GI50,NCI/ADR-RES ovarian,> 4.25 µM
same,TGI,NCI/ADR-RES ovarian,> 4.25 µM
same,GI50,OVCAR-3 ovarian,1.29 µM
same,TGI,OVCAR-3 ovarian,> 4.25 µM
same,GI50,OVCAR-4 ovarian,1.05 µM
same,TGI,OVCAR-4 ovarian,> 4.25 µM
same,GI50,OVCAR-5 ovarian,1.73 µM
same,TGI,OVCAR-5 ovarian,> 4.25 µM
same,GI50,OVCAR-8 ovarian,2.43 µM
same,TGI,OVCAR-8 ovarian,> 4.25 µM
same,GI50,PC-3 prostate,1.34 µM
same,TGI,PC-3 prostate,> 4.25 µM
same,GI50,RPMI-8226 leukemia,0.296 µM
same,TGI,RPMI-8226 leukemia,2.19 µM
same,GI50,RXF 393 renal,0.777 µM
same,TGI,RXF 393 renal,2.48 µM
same,GI50,SF-268 CNS,1.73 µM
same,TGI,SF-268 CNS,> 4.25 µM
same,GI50,SF-295 CNS,1.32 µM
same,TGI,SF-295 CNS,> 4.25 µM
same,GI50,SF-539 CNS,1.34 µM
same,TGI,SF-539 CNS,> 4.25 µM
same,GI50,SK-MEL-2 melanoma,1.33 µM
same,TGI,SK-MEL-2 melanoma,4.02 µM
same,GI50,SK-MEL-28 melanoma,1.36 µM
same,TGI,SK-MEL-28 melanoma,> 4.25 µM
same,GI50,SK-MEL-5 melanoma,0.899 µM
same,TGI,SK-MEL-5 melanoma,1.96 µM
same,GI50,SK-OV-3 ovarian,1.28 µM
same,TGI,SK-OV-3 ovarian,> 4.25 µM
same,GI50,SN12C renal,0.931 µM
same,TGI,SN12C renal,> 4.25 µM
same,GI50,SNB-19 CNS,1.16 µM
same,TGI,SNB-19 CNS,> 4.25 µM
same,GI50,SNB-75 CNS,0.788 µM
same,TGI,SNB-75 CNS,> 4.25 µM
same,GI50,SR leukemia,2.2 µM
same,TGI,SR leukemia,> 4.25 µM
same,GI50,SW-620 colon,2.55 µM
same,TGI,SW-620 colon,> 4.25 µM
same,GI50,T-47D breast,1.12 µM
same,TGI,T-47D breast,3.88 µM
same,GI50,TK-10 renal,3.92 µM
same,TGI,TK-10 renal,> 4.25 µM
same,GI50,U251 CNS,1.07 µM
same,TGI,U251 CNS,> 4.25 µM
same,GI50,UACC-257 melanoma,1.02 µM
same,TGI,UACC-257 melanoma,3.43 µM
same,GI50,UACC-62 melanoma,1.8 µM
same,TGI,UACC-62 melanoma,> 4.25 µM
same,GI50,UO-31 renal,> 4.25 µM
same,TGI,UO-31 renal,> 4.25 µM

# Reference: PubChem BioAssay (NCI)
